Literature values in patent US6391843B1, “Chemical linker compositions” (Colgate-Palmolive Co., priority 1996, dated 2002).

Test system: insect
Conditions: hard surface cleaning composition

Methylneodecanamide [MNDA]
amount of MNDA necessary to deposit to have one day efficacy: 10 micrograms of MNDA per cm2
